The values that follow come from patent US9346815B2, “5-chloro-2-difluoromethoxyphenyl pyrazolopyrimidine compounds, compositions and methods of use thereof” (Genentech, Inc., priority 2014, dated 2016).

In assay [1] the target is isolated recombinant JAK1 kinase domain (Homo sapiens (Human), UniProt P23458). Description: JAK1 enzyme assay (Caliper LabChip, peptide phosphorylation). Format: biochemical. The conditions noted are these: isolated recombinant JAK1 kinase domain, 25 μM ATP.
Assay [2] concerns the target isolated recombinant JAK2 kinase domain (Homo sapiens (Human), UniProt O60674). Description: JAK2 enzyme assay (Caliper LabChip, peptide phosphorylation). The class given is biochemical. The conditions noted are these: 25 μM ATP.
The test system of assay [3] is JAK1-dependent STAT6 phosphorylation downstream of IL-13 stimulation in BEAS-2B human bronchial epithelial cells. Description: JAK1 pathway assay in BEAS-2B cells (IL-13-pSTAT6, MSD). Format: cell-based. The note with it: read-out: IL13-pSTAT6 EC50 (uM)_BEAS-2B. In outline: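 Cells were preincubated with compounds (0.2% DMSO) for 30 min (TF-1, GM-CSF-starved overnight, serum-free OptiMEM, 300,000 cells/well) or 1 h (BEAS-2B, complete medium, 100,000 cells/well) at 37 °C.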

Molecules are shown by their SMILES.

Chain of isolated recombinant JAK1 kinase domain (P23458 875-1153): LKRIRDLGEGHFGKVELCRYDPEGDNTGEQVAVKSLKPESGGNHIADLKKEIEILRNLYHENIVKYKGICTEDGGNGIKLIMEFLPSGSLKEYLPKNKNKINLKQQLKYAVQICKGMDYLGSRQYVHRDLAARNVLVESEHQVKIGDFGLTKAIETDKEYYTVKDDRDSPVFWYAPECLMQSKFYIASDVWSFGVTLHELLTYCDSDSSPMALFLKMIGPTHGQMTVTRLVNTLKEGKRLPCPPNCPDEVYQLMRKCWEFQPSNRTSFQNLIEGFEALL
Chain of isolated recombinant JAK2 kinase domain (O60674 849-1124): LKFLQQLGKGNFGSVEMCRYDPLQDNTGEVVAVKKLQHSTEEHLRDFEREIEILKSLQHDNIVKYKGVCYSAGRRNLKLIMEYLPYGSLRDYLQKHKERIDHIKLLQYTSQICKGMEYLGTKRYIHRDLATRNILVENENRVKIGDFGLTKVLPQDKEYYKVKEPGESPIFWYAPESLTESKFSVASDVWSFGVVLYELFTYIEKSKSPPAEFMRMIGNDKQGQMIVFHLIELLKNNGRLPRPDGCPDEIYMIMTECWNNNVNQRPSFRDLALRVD

Take `CN(C)CC(=O)Cn1cc(NC(=O)c2cnn3cccnc23)c(-c2cc(Cl)ccc2OC(F)F)n1` [Example 411, N-(3-(5-chloro-2-(difluoromethoxy)phenyl)-1-(3-(dimethylamino)-2-oxopropyl)-1H-pyrazol-4-yl)pyrazolo[1,5-a]pyrimidine-3-carboxamide]: the Ki in assay [1] was 1.7 nM; in assay [2] it was 0.43 nM. Further, the EC50 in assay [3] was 0.0228 µM.

Turning to `O=C(O)CN(CCn1cc(NC(=O)c2cnn3cccnc23)c(-c2cc(Cl)ccc2OC(F)F)n1)Cc1cccnc1` [Example 363, 2-[(2-[3-[5-chloro-2-(difluoromethoxy)phenyl]-4-[pyrazolo[1,5-a]pyrimidine-3-amido]-1H-pyrazol-1-yl]ethyl)(pyridin-3-ylmethyl)amino]acetic acid], the figures for the Ki in assay [1] and in assay [2] were 4.15 nM and 1.21 nM, respectively. The EC50 in assay [3] amounted to 3.78 µM.

For `CC1(C(=O)OCCN2CCOCC2)CCN(C(=O)Cn2cc(NC(=O)c3cnn4cccnc34)c(-c3cc(Cl)ccc3OC(F)F)n2)CC1` [Example 339, 2-(morpholin-4-yl)ethyl1-(2-[3-[5-chloro-2-(difluoromethoxy)phenyl]-4-[pyrazolo[1,5-a]pyrimidine-3-amido]-1H-pyrazol-1-yl]acetyl)-4-methylpiperidine-4-carboxylate], the figures for the Ki in assay [1] and in assay [2] were 0.41 nM and 1.01 nM, respectively. Moreover, the EC50 in assay [3] was 0.0094 µM.

For the compound `NC1CCC(=CCn2cc(NC(=O)c3cnn4cccnc34)c(-c3cc(Cl)ccc3OC(F)F)n2)CC1` (stereo not drawn) [Example 422, N-(1-(2-(4-amino-cyclohexylidene)ethyl)-3-(5-chloro-2-(difluoromethoxy)phenyl)-1H-pyrazol-4-yl)pyrazolo[1,5-a]pyrimidine-3-carboxamide], the Ki in assay [1] turned out to be 0.89 nM; in assay [2] it was 1.77 nM. Also, in assay [3], the EC50 turned out to be 0.061 µM.

In the case of `O=C(Nc1cn(CC(=O)N2CCC(C(=O)OCCN3CCOCC3)CC2)nc1-c1cc(Cl)ccc1OC(F)F)c1cnn2cccnc12` [Example 336, 2-(morpholin-4-yl)ethyl 1-(2-[3-[5-chloro-2-(difluoromethoxy)phenyl]-4-[pyrazolo[1,5-a]pyrimidine-3-amido]-1H-pyrazol-1-yl]acetyl)piperidine-4-carboxylate], the Ki in assay [1] stood at 0.49 nM; in assay [2] it was 1.05 nM. For the same compound, the EC50 in assay [3] turned out to be 0.0145 µM.

Consider `O=C1CCC(CNCCn2cc(NC(=O)c3cnn4cccnc34)c(-c3cc(Cl)ccc3OC(F)F)n2)O1` (stereo not drawn) [Example 381, N-[3-[5-chloro-2-(difluoromethoxy)phenyl]-1-(2-[[(5-oxooxolan-2-yl)methyl]amino]ethyl)-1H-pyrazol-4-yl]pyrazolo[1,5-a]pyrimidine-3-carboxamide], for which the results for the Ki in assay [1] and in assay [2] were 1.07 nM and 0.55 nM, respectively. In addition, the EC50 in assay [3] worked out at 0.0298 µM.

With `O=C(Nc1cn(CC(=O)N2CCC(OCC(=O)N3CCOCC3)CC2)nc1-c1cc(Cl)ccc1OC(F)F)c1cnn2cccnc12` [Example 453, N-(3-(5-chloro-2-(difluoromethoxy)phenyl)-1-(2-(4-(2-morpholino-2-oxoethoxy)piperidin-1-yl)-2-oxoethyl)-1H-pyrazol-4-yl)pyrazolo[1,5-a]pyrimidine-3-carboxamide], the Ki turned out to be 0.41 nM in assay [1] and 1.3 nM in assay [2]. The EC50 in assay [3] is 0.0304 µM.

As for `O=C1C=C(CN2CCN(C(=O)Cn3cc(NC(=O)c4cnn5cccnc45)c(-c4cc(Cl)ccc4OC(F)F)n3)CC2)CO1` [Example 351, N-[3-[5-chloro-2-(difluoromethoxy)phenyl]-1-(2-oxo-2-[4-[(5-oxo-2,5-dihydrofuran-3-yl)methyl]piperazin-1-yl]ethyl)-1H-pyrazol-4-yl]pyrazolo[1,5-a]pyrimidine-3-carboxamide], the Ki in assay [1] was found to be 0.46 nM; in assay [2], 0.94 nM. Moreover, the EC50 in assay [3] was determined as 0.0365 µM.

For `CN(C)CCOC(=O)C1(C)CCN(C(=O)Cn2cc(NC(=O)c3cnn4cccnc34)c(-c3cc(Cl)ccc3OC(F)F)n2)CC1` [Example 340, 2-(dimethylamino)ethyl 1-(2-[3-[5-chloro-2-(difluoromethoxy)phenyl]-4-[pyrazolo[1,5-a]pyrimidine-3-amido]-1H-pyrazol-1-yl]acetyl)-4-methylpiperidine-4-carboxylate], the values for the inhibitory constant (Ki) in assay [1] and in assay [2] were 0.44 nM and 1.79 nM, respectively. Also, in assay [3], the EC50 worked out at 0.009 µM.

As to `O=C(O)CNC1CCN(CCn2cc(NC(=O)c3cnn4cccnc34)c(-c3cc(Cl)ccc3OC(F)F)n2)CC1` [Example 311, 2-[[1-(2-[3-[5-chloro-2-(difluoromethoxy)phenyl]-4-[pyrazolo[1,5-a]pyrimidine-3-amido]-1H-pyrazol-1-yl]ethyl)piperidin-4-yl]amino]acetic acid], the figures for the Ki in assay [1] and in assay [2] were 1.25 nM and 0.73 nM, respectively. Besides, the EC50 in assay [3] was 2.6 µM.

Regarding `O=C(Nc1cn([C@@H]2CCNC[C@H]2O)nc1-c1cc(Cl)ccc1OC(F)F)c1cnn2cccnc12` [Example 358, N-[3-[5-chloro-2-(difluoromethoxy)phenyl]-1-[(3R,4R)-3-hydroxypiperidin-4-yl]-1H-pyrazol-4-yl]pyrazolo[1,5-a]pyrimidine-3-carboxamide], the Ki in assay [1] turned out to be 0.93 nM; in assay [2] it was 0.66 nM. Moreover, the EC50 in assay [3] came to 0.0133 µM.

For `O=C(Nc1cn(CC(=O)N2CCC(N3CCOCC3)CC2)nc1-c1cc(Cl)ccc1OC(F)F)c1cnn2cccnc12` [Example 393, N-[3-[5-chloro-2-(difluoromethoxy)phenyl]-1-[2-[4-(morpholin-4-yl)piperidin-1-yl]-2-oxoethyl]-1H-pyrazol-4-yl]pyrazolo[1,5-a]pyrimidine-3-carboxamide], the results for the Ki in assay [1] and in assay [2] were 0.38 nM and 0.89 nM, respectively. For the same compound, the EC50 in assay [3] came to 0.0115 µM.

On to `CN1CCN(C(=O)Cn2cc(NC(=O)c3cnn4cccnc34)c(-c3cc(Cl)ccc3OC(F)F)n2)C(C)(C)C1` [Example 377, N-[3-[5-chloro-2-(difluoromethoxy)phenyl]-1-[2-oxo-2-(2,2,4-trimethylpiperazin-1-yl)ethyl]-1H-pyrazol-4-yl]pyrazolo[1,5-a]pyrimidine-3-carboxamide], for which the Ki in assay [1] was found to be 0.56 nM; in assay [2], 1.3 nM. Further, the EC50 in assay [3] is 0.0528 µM.

On to `CN1CCC(=CCn2cc(NC(=O)c3cnn4cccnc34)c(-c3cc(Cl)ccc3OC(F)F)n2)CC1` [Example 415, N-(3-(5-chloro-2-(difluoromethoxy)phenyl)-1-(2-(1-methylpiperidin-4-ylidene)ethyl)-1H-pyrazol-4-yl)pyrazolo[1,5-a]pyrimidine-3-carboxamide], for which the figures for the Ki in assay [1] and in assay [2] were 2.99 nM and 2.09 nM, respectively. Further, the 50% effective concentration (EC50) in assay [3] was 0.046 µM.

For `O=C(Nc1cn(CCNCc2ccncc2)nc1-c1cc(Cl)ccc1OC(F)F)c1cnn2cccnc12` [Example 315, N-[3-[5-chloro-2-(difluoromethoxy)phenyl]-1-[2-[(pyridin-4-ylmethyl)amino]ethyl]-1H-pyrazol-4-yl]pyrazolo[1,5-a]pyrimidine-3-carboxamide], the Ki was 0.72 nM in assay [1] and 0.4 nM in assay [2]. Moreover, in assay [3], the EC50 worked out at 0.0823 µM.

As for `CN1CCN(C2CCN(C(=O)Cn3cc(NC(=O)c4cnn5cccnc45)c(-c4cc(Cl)ccc4OC(F)F)n3)CC2)CC1` [Example 349, N-[3-[5-chloro-2-(difluoromethoxy)phenyl]-1-[2-[4-(4-methylpiperazin-1-yl)piperidin-1-yl]-2-oxoethyl]-1H-pyrazol-4-yl]pyrazolo[1,5-a]pyrimidine-3-carboxamide], the values for the Ki in assay [1] and in assay [2] were 0.55 nM and 1.65 nM, respectively. The EC50 in assay [3] was 0.0155 µM.
